Where a SMILES comes first, the peptide text is derived from it. Where no end group is shown, it is not given here. The star is where a group is joined. X1 = Nc1ccn([C@@H]2O[C@H](COC(=O)CCC(=O)*)[C@@H](O)C2(F)F)c(=O)n1
Experiments:
A549 cells [1] = assay: Antitumor activity of free gemcitabine and Gem-CPP conjugates by MTT test; conditions: for cell viability: 72 h incubation, 10 % FBS; for cell viability / cytotoxicity in comparison to the free drug: 72 h, 15 and 25 µM where stated
Procedure: (§1) A549 lung carcinoma cell line was obtained from the Pasteur Institute (Iran). Cells were maintained in RPMI 1640 medium supplemented with 10 % FBS, 100 units/ml penicillin, and 100 μg/ml streptomycin and grown at 37 °C in a 5 % CO2 humidified atmosphere.
(§2) A549 cells were seeded into 96-well plates at a density of 1.5 × 10^4 cells/well and pre-incubated for 24 h. The next day, different concentrations of peptides were added to the culture medium. Cells were incubated at 37 °C for 72 h. The medium was removed and the wells were washed with PBS. The MTT assay was performed by introducing 50 μl of 2 mg/ml MTT to each well for 4 h. The culture media aspirated and then resulting formazan crystals were dissolved in DMSO and the absorbance of individual wells was obtained at 570 nm. Untreated cells were defined as 100 % viable.
The antitumor activity of free gemcitabine and its conjugates with CPPs (Gem-CPP) was investigated using MTT test after incubation for 72 h. The activity of drug-peptide conjugates i.e. Gem-R5W3R4, Gem-[RW]6, Gem-[RW]5, Gem-[RW]4 and Gem-[WR]3, was evaluated and compared with that of the free drug (Figure 6(Fig. 6)).
Figure 6 Toxicity of Gem-R5W3R4 (A), Gem-[RW]6 (B), Gem-[RW5] (C), Gem-[RW]4 (D), Gem-[RW]3 (E) and Gem to A549 cells. The cells were incubated for 3 days in 10 % FBS with or without peptides and analyzed for proliferation by MTT assay.

A549 cells [2] = assay: Cytotoxicity of blank CPPs by MTT assay; conditions: 72 h peptide exposure
Procedure: as §1, §2

A549 cells [3] = assay: Fluorescent microscopy of uptake and intracellular localization of FITC-labeled peptides; type: cell-based; conditions: FITC-labeled peptide, 25 µM, 1.5 h at 37 °C, live A549 cells, fluorescence read-out
Procedure: The cellular uptake of the FITC-labeled peptide was examined in A549 cell line. A549 cells were seeded with RPMI 1640 medium on coverslips in 6-well plates and allowed to adhere overnight. Then the medium was removed and washed with PBS. The cells were treated with FITC-labeled peptide for 1.5 h at 37 °C. After incubation, the media containing the compound were removed and the cells were washed with PBS three times. Coverslips were placed on a microscope slide (Olympus IX81 fluorescence microscope, Olympus Optical Co., Ltd., Tokyo, Japan).
The uptake and intracellular localization of FITC-labeled peptides were examined by fluorescent microscopy. […] The uptake of all peptides was examined at the concentration of 25 µM.
Figure 4 Fluorescence microscopy, visualization of FITC-labeled, R5W3R4 (A, B), [RW]6 (C, D), [RW]5 (E, F), [RW]4 (G, H), and [RW]3 (I, J) in A459 cells. The top photos show fluorescence microscopy and the bottom bright field of A459 cells. Live cells were treated with 25 µm of peptides for 1.5 h at 37 °C. Control cells were incubated in RPMI medium without the peptides.

A549 cells [4] = assay: Flow cytometry of cellular uptake of FITC-labeled peptides; type: cell-based; conditions: FITC-labeled peptide, 1.5 h at 37 °C, trypsin treatment to remove surface-bound peptide, FACSCalibur
Procedure: A549 cells were seeded with RMPI 1640 medium in 6-well plates (3×10^5 cells/well) 24 h prior to the experiment. After 24 h, the medium was removed and washed with PBS. Then FITC-labeled peptide was added to the cells. The plates were incubated for 1.5 h at 37 °C. After that, the medium containing the peptide was removed. The cells were washed three times with PBS and detached with 0.25 % trypsin/EDTA (0.53 mM) for 5 min. To each well, 2 ml of the medium was added and centrifuged for 4 min. Cells were washed twice with PBS and finally were re-suspended in flow cytometry buffer and analyzed by FACSCalibur (Becton Dickinson, San Jose, CA, USA).
Flow cytometry was used to determine the relative amounts of internalized peptide after 1.5 h incubation at 37 °C. After the incubation, cells were treated with trypsin to remove the cell surface-bound peptides. […] The percentage of cell fluorescence was increased with increasing peptides concentration. This effect was nearly linear for the tested concentrations. There was an increase in fluorescence intensity of cells treated with peptides of higher amino acid content.
Figure 5 Cellular uptake of FITC-labeled peptides in live A549 cells after incubation. The uptake was measured as the relative fraction of positive cells (%) from flow cytometry analysis of all living cells positive for the fluorophore.

## Nc1ccn([C@@H]2O[C@H](CO)[C@@H](O)C2(F)F)c(=O)n1 [Free drug, Gemcitabine]
A549 cells [1]; 15 µM
  cell viability: 20%
A549 cells [1]; 25 µM
  cell viability: 20%

## N=C(N)NCCC[C@H](NC(=O)[C@H](CCCNC(=N)N)NC(=O)[C@H](CCCNC(=N)N)NC(=O)[C@H](CCCNC(=N)N)NC(=O)[C@H](Cc1c[nH]c2ccccc12)NC(=O)[C@H](Cc1c[nH]c2ccccc12)NC(=O)[C@H](Cc1c[nH]c2ccccc12)NC(=O)[C@H](CCCNC(=N)N)NC(=O)[C@H](CCCNC(=N)N)NC(=O)[C@H](CCCNC(=N)N)NC(=O)[C@H](CCCNC(=N)N)NC(=O)[C@H](CCCNC(=N)N)NC(=O)CCC(=O)OC[C@H]1O[C@@H](n2ccc(N)nc2=O)C(F)(F)[C@@H]1O)C(N)=O [Gem-R5W3R4] (X1-RRRRRWWWRRRR-NH2)
A549 cells [1]
  cell viability / cytotoxicity in comparison to the free drug: decreased cell viability

## N=C(N)NCCC[C@H](NC(=O)CCC(=O)OC[C@H]1O[C@@H](n2ccc(N)nc2=O)C(F)(F)[C@@H]1O)C(=O)N[C@@H](Cc1c[nH]c2ccccc12)C(=O)N[C@@H](CCCNC(=N)N)C(=O)N[C@@H](Cc1c[nH]c2ccccc12)C(=O)N[C@@H](CCCNC(=N)N)C(=O)N[C@@H](Cc1c[nH]c2ccccc12)C(=O)N[C@@H](CCCNC(=N)N)C(=O)N[C@@H](Cc1c[nH]c2ccccc12)C(=O)N[C@@H](CCCNC(=N)N)C(=O)N[C@@H](Cc1c[nH]c2ccccc12)C(=O)N[C@@H](CCCNC(=N)N)C(=O)N[C@@H](Cc1c[nH]c2ccccc12)C(N)=O [Gem-[RW]6]
A549 cells [1]
  cell viability / cytotoxicity in comparison to the free drug: decreased cell viability

## RRRRRWWWRRRR-NH2 [R5W3R4]
A549 cells [2]; 25 µM
  cell toxicity value: 9%
A549 cells [2]; 50 µM
  cell death: 28%
A549 cells [3]
  intracellular distribution (fluorescent microscopy): homogeneous staining throughout the intracellular space
A549 cells [4]
  intracellular fluorescence, relative fraction of positive cells (flow cytometry): maximum intracellular fluorescence
